In ChEMBL document CHEMBL1649332, “Update on fusidic acid (CEM-102) tested against Neisseria gonorrhoeae and Chlamydia trachomatis” (Antimicrob Agents Chemother, 2010):
Converted amounts (≈) assume the structure as drawn. The source made the active and inactive calls. The rule behind the calls is not given here.

Columns and labels:
[1] = tested on: Neisseria gonorrhoeae; test: Antimicrobial activity against Neisseria gonorrhoeae assessed as susceptible isolates by EUCAST method; type: functional
[2] = tested on: Neisseria gonorrhoeae; test: Antimicrobial activity against Neisseria gonorrhoeae assessed as resistant isolates by EUCAST method; type: functional
[3] = tested on: Neisseria gonorrhoeae; test: Antimicrobial activity against Neisseria gonorrhoeae isolates by CLSI agar dilution method; type: functional
[4] = tested on: Chlamydia trachomatis; test: Antimicrobial activity against Chlamydia trachomatis isolates; type: functional; conditions: for MBC / MIC90: Chlamydia trachomatis
[5] = tested on: Neisseria gonorrhoeae; test: Antimicrobial activity against Neisseria gonorrhoeae assessed as susceptible isolates by CLSI method; type: functional
[6] = tested on: Neisseria gonorrhoeae; test: Antimicrobial activity against Neisseria gonorrhoeae isolates up to 2 ug/ml by CLSI agar dilution method; type: functional, organism-based
[7] = tested on: Plasma; test: Trough plasma concentration in human; type: ADME, cell-free
[8] = tested on: Neisseria gonorrhoeae; test: Antimicrobial activity against Neisseria gonorrhoeae assessed as resistant isolates by CLSI method; type: functional

Structure (SMILES) | MIC90 [4] [mg/L] | MIC90 [3] [mg/L] | Cmin [7] [µg/mL] | Activity [1] [%] | Activity [2] [%] | MIC50 [3] [mg/L] | MBC90 [4] [mg/L] | MBC [4] [mg/L] | Activity [5] [%] | Activity [6] | Activity [8] [%]
CC[C@H]1OC(=O)[C@H](C)[C@@H](O[C@H]2C[C@@](C)(OC)[C@@H](O)[C@H](C)O2)[C@H](C)[C@@H](O[C@@H]2O[C@H](C)C[C@H](N(C)C)[C@H]2O)[C@](C)(O)C[C@@H](C)CN(C)[C@H](C)[C@@H](O)[C@]1(C)O [AZITHROMYCIN] | 0.12 (≈ 0.16 µM) | – | – | 80 | 5.7 | 0.25 (≈ 0.334 µM) | 0.12 (≈ 0.16 µM) | 0.015 (≈ 0.02 µM) | – | – | –
CO/N=C(\C(=O)N[C@@H]1C(=O)N2C(C(=O)O)=C(CSc3nc(=O)c(O)nn3C)CS[C@H]12)c1csc(N)n1 [CEFTRIAXONE] | – | – | – | 100 | 0 | – | – | – | 100 | – | –
CC1(C)S[C@@H]2[C@H](NC(=O)Cc3ccccc3)C(=O)N2[C@H]1C(=O)O [PENICILLIN G] | – | – | – | 22.9 | 45.7 | 1 (≈ 2.99 µM) | – | – | 22.9 | – | 45.7
CN(C)[C@@H]1C(O)=C(C(N)=O)C(=O)[C@@]2(O)C(O)=C3C(=O)c4c(O)cccc4[C@@](C)(O)[C@H]3C[C@@H]12 [TETRACYCLINE] | – | – | – | 45.7 | 34.3 | 1 (≈ 2.25 µM) | – | – | 22.9 | – | 34.3

More lines, main results first:

MIC90 [4] [mg/L] | MIC90 [3] [mg/L] | Cmin [7] [µg/mL] | Structure (SMILES) | Activity [1] [%] | Activity [2] [%] | MIC50 [3] [mg/L] | MBC90 [4] [mg/L] | MBC [4] [mg/L] | Activity [5] [%] | Activity [6] | Activity [8] [%]
0.06 (≈ 0.0802 µM) | – | – | CC[C@H]1OC(=O)[C@H](C)[C@@H](O[C@H]2C[C@@](C)(OC)[C@@H](O)[C@H](C)O2)[C@H](C)[C@@H](O[C@@H]2O[C@H](C)C[C@H](N(C)C)[C@H]2O)[C@](C)(OC)C[C@@H](C)C(=O)[C@H](C)[C@@H](O)[C@]1(C)O [CLARITHROMYCIN] | – | – | – | 0.06 (≈ 0.0802 µM) | 0.015 (≈ 0.0201 µM) | – | – | –
0.06 | – | – | C[C@H]1c2cccc(O)c2C(=O)C2=C(O)[C@]3(O)C(=O)C(C(N)=O)=C(O)[C@@H](N(C)C)[C@@H]3[C@@H](O)[C@@H]21.O [DOXYCYCLINE] | – | – | – | 0.06 | 0.015 | – | – | –
0.5 (≈ 0.968 µM) | 1 (≈ 1.94 µM) | 80 | CC(=O)O[C@H]1C[C@@]2(C)[C@@H](C[C@@H](O)[C@H]3[C@@]4(C)CC[C@@H](O)[C@@H](C)[C@@H]4CC[C@@]32C)/C1=C(\CCC=C(C)C)C(=O)O [FUSIDIC ACID] | – | – | 0.5 (≈ 0.968 µM) | 0.5 (≈ 0.968 µM) | 0.12 (≈ 0.232 µM) | – | Active | –
0.06 (≈ 0.0739 µM) | – | – | CC[C@H]1OC(=O)[C@H](C)C(=O)[C@H](C)[C@@H](O[C@@H]2O[C@H](C)C[C@H](N(C)C)[C@H]2O)[C@](C)(OC)C[C@@H](C)C(=O)[C@H](C)[C@H]2N(CCCCn3cnc(-c4cccnc4)c3)C(=O)O[C@]12C [TELITHROMYCIN] | – | – | – | 0.06 (≈ 0.0739 µM) | 0.015 (≈ 0.0185 µM) | – | – | –
